Experimental data from patent publication US10259808B2 (Genentech, Inc., priority 2015, dated 2019).
pIC50: −log10 of the molar value. Where a name gives a salt, the structure may show the parent alone.

What follows are compounds tested against T1, RORc ligand binding domain (Homo sapiens, UniProt P51449) (assay: In vitro RORc ligand binding assay (25-[3H]hydroxycholesterol displacement)).
T1 sequence (P51449 269-508 limits assumed): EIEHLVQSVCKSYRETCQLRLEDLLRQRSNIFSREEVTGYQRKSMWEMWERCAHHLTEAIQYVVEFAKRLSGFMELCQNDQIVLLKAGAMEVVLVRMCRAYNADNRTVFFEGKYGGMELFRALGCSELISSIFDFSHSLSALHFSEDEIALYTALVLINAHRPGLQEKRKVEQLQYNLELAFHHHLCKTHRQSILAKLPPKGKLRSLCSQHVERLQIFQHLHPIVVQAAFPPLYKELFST

| SMILES | pIC50 |
| --- | --- |
| C[C@H]1CC[C@H](c2ccccc2)S(=O)(=O)N1Cc1ccc(C2(NCc3ncco3)CCOCC2)cc1F [Example 71, 4-[3-fluoro-4-[[(3S,6R)-3-methyl-1,1-dioxo-6-phenyl-thiazinan-2-yl]methyl]phenyl]-N-(oxazol-2-ylmethyl)tetrahydropyran-4-amine] | 8.60 |
| C[C@H]1CC[C@H](c2ccccc2)S(=O)(=O)N1Cc1ccc(C2(NCc3cc[nH]c(=O)c3)CCOCC2)cc1F [Example 72, 4-[[[4-[3-fluoro-4-[[(3S,6R)-3-methyl-1,1-dioxo-6-phenyl-thiazinan-2-yl]methyl]phenyl]tetrahydropyran-4-yl]amino]methyl]-1H-pyridin-2-one] | 7.97 |
| C[C@H]1CC[C@H](c2ccccc2)S(=O)(=O)N1Cc1cc(F)c(C2(NCc3ccn[nH]3)CCOCC2)cc1F [Example 73, 4-[2,5-difluoro-4-[[(3S,6R)-3-methyl-1,1-dioxo-6-phenyl-thiazinan-2-yl]methyl]phenyl]-N-(1H-pyrazol-5-ylmethyl)tetrahydropyran-4-amine] | 8.54 |
| C[C@H]1CC[C@H](c2ccccc2)S(=O)(=O)N1Cc1cc(F)c(C2(NCc3cocn3)CCOCC2)cc1F [Example 75, 4-[2,5-difluoro-4-[[(3S,6R)-3-methyl-1,1-dioxo-6-phenyl-thiazinan-2-yl]methyl]phenyl]-N-(oxazol-4-ylmethyl)tetrahydropyran-4-amine] | 8.19 |
| C[C@H]1CC[C@H](c2ccccc2)S(=O)(=O)N1Cc1cc(F)c(C2(NC(=O)c3cocn3)CCOCC2)cc1F [Example 80, N-[4-[2,5-difluoro-4-[[(3S,6R)-3-methyl-1,1-dioxo-6-phenyl-thiazinan-2-yl]methyl]phenyl]tetrahydropyran-4-yl]oxazole-4-carboxamide] | 8.32 |
| C[C@H]1CC[C@H](c2ccccc2)S(=O)(=O)N1Cc1cc(F)c(C2(NCc3ncco3)CCOCC2)cc1F [Example 83, 4-[2,5-difluoro-4-[[(3S,6R)-3-methyl-1,1-dioxo-6-phenyl-thiazinan-2-yl]methyl]phenyl]-N-(oxazol-2-ylmethyl)tetrahydropyran-4-amine] | 8.43 |
| Cc1cc(CNC2(c3cc(F)c(CN4[C@@H](C)CC[C@H](c5ccccc5)S4(=O)=O)cc3F)CCOCC2)no1 [Example 86, 4-[2,5-difluoro-4-[[(3S,6R)-3-methyl-1,1-dioxo-6-phenyl-thiazinan-2-yl]methyl]phenyl]-N-[(5-methylisoxazol-3-yl)methyl]tetrahydropyran-4-amine] | 8.30 |
| C[C@H]1CC[C@H](c2ccccc2)S(=O)(=O)N1Cc1cc(F)c(C2(NCc3ncnn3C)COC2)cc1F [Example 87, 3-[2,5-difluoro-4-[[(3S,6R)-3-methyl-1,1-dioxo-6-phenyl-thiazinan-2-yl]methyl]phenyl]-N-[(2-methyl-1,2,4-triazol-3-yl)methyl]oxetan-3-amine] | 8.10 |
| C[C@H]1CC[C@H](c2ccccc2)S(=O)(=O)N1Cc1cc(F)c(C2(NCc3ccn(C)n3)CCOCC2)cc1F [Example 91, 4-[2,5-difluoro-4-[[(3S,6R)-3-methyl-1,1-dioxo-6-phenyl-thiazinan-2-yl]methyl]phenyl]-N-[(1-methylpyrazol-3-yl)methyl]tetrahydropyran-4-amine] | 7.08 |
| Cc1cc(C(=O)NC2(c3cc(F)c(CN4[C@@H](C)CC[C@H](c5ccccc5)S4(=O)=O)cc3F)CCOCC2)no1 [Example 93, N-[4-[2,5-difluoro-4-[[(3,6R)-3-methyl-1,1-dioxo-6-phenyl-thiazinan-2-yl]methyl]phenyl]tetrahydropyran-4-yl]-5-methyl-isoxazole-3-carboxamide] | 7.36 |
| C[C@H]1CC[C@H](c2ccccc2)S(=O)(=O)N1Cc1cc(F)c(C2(NC(=O)Cc3ccon3)COC2)cc1F [Example 94, N-[3-[2,5-difluoro-4-[[(3S,6R)-3-methyl-1,1-dioxo-6-phenyl-thiazinan-2-yl]methyl]phenyl]oxetan-3-yl]-2-isoxazol-3-yl-acetamide] | 7.75 |

Other lines, results leading:

| pIC50 | SMILES |
| --- | --- |
| 7.41 | C[C@H]1CC[C@H](c2ccccc2)S(=O)(=O)N1Cc1ccc(C2(NCc3ccc(=O)[nH]c3)CCOCC2)cc1F [Example 68, 5-[[[4-[3-fluoro-4-[[(3S,6R)-3-methyl-1,1-dioxo-6-phenyl-thiazinan-2-yl]methyl]phenyl]tetrahydropyran-4-yl]amino]methyl]-1H-pyridin-2-one] |
| 7.08 | C[C@H]1CC[C@H](c2ccccc2)S(=O)(=O)N1Cc1ccc(C2(N3C=NC(=O)/C3=C\O)CCOCC2)cc1F [Example 69, (5E)-1-[4-[3-fluoro-4-[[(3S,6R)-3-methyl-1,1-dioxo-6-phenyl-thiazinan-2-yl]methyl]phenyl]tetrahydropyran-4-yl]-5-(hydroxymethylene)imidazol-4-one] |
| 6.95 | C[C@H]1CC[C@H](c2ccccc2)S(=O)(=O)N1Cc1ccc(C2(n3cn[nH]c3=O)CCOCC2)cc1F [Example 70, 4-[4-[3-fluoro-4-[[(3S,6R)-3-methyl-1,1-dioxo-6-phenyl-thiazinan-2-yl]methyl]phenyl]tetrahydropyran-4-yl]-1H-1,2,4-triazol-5-one] |
| 7.89 | C[C@H]1CC[C@H](c2ccccc2)S(=O)(=O)N1Cc1cc(F)c(C2(c3nc(CO)co3)CCOCC2)cc1F [Example 74, [2-[4-[2,5-difluoro-4-[[(3S,6R)-3-methyl-1,1-dioxo-6-phenyl-thiazinan-2-yl]methyl]phenyl]tetrahydropyran-4-yl]oxazol-4-yl]methanol] |
| 8.34 | Cc1cc(CNC2(c3ccc(CN4[C@@H](C)CC[C@H](c5ccccc5)S4(=O)=O)c(F)c3)CCOCC2)no1 [Example 76, 4-[3-fluoro-4-[[(3S,6R)-3-methyl-1,1-dioxo-6-phenyl-thiazinan-2-yl]methyl]phenyl]-N-[(5-methylisoxazol-3-yl)methyl]tetrahydropyran-4-amine] |
| 7.06 | C[C@H]1CC[C@H](c2ccccc2)S(=O)(=O)N1Cc1ccc(C2(NCc3ccc[nH]c3=O)CCOCC2)cc1F [Example 77, 3-[[[4-[3-fluoro-4-[[(3S,6R)-3-methyl-1,1-dioxo-6-phenyl-thiazinan-2-yl]methyl]phenyl]tetrahydropyran-4-yl]amino]methyl]-1H-pyridin-2-one] |
| 7.52 | Cc1nc(CNC2(c3ccc(CN4[C@@H](C)CC[C@H](c5ccccc5)S4(=O)=O)c(F)c3)CCOCC2)co1 [Example 78, 4-[3-fluoro-4-[[(3S,6R)-3-methyl-1,1-dioxo-6-phenyl-thiazinan-2-yl]methyl]phenyl]-N-[(2-methyloxazol-4-yl)methyl]tetrahydropyran-4-amine; hydrochloride] |
| 7.11 | C[C@H]1CC[C@H](c2ccccc2)S(=O)(=O)N1Cc1ccc(C2(N(C)Cc3nnc[nH]3)CCOCC2)cc1F [Example 79, 4-[3-fluoro-4-[[(3S,6R)-3-methyl-1,1-dioxo-6-phenyl-thiazinan-2-yl]methyl]phenyl]-N-methyl-N-(4H-1,2,4-triazol-3-ylmethyl)tetrahydropyran-4-amine] |
| 8.06 | C[C@H]1CC[C@H](c2ccccc2)S(=O)(=O)N1Cc1cc(F)c(C2(N(C)Cc3cocn3)CCOCC2)cc1F [Example 81, 4-[2,5-difluoro-4-[[(3S,6R)-3-methyl-1,1-dioxo-6-phenyl-thiazinan-2-yl]methyl]phenyl]-N-methyl-N-(oxazol-4-ylmethyl)tetrahydropyran-4-amine] |
| 8.24 | C[C@H]1CC[C@H](c2ccccc2)S(=O)(=O)N1Cc1cc(F)c(C2(NCc3cc(=O)[nH]o3)CCOCC2)cc1F [Example 82, 5-[[[4-[2,5-difluoro-4-[[(3S,6R)-3-methyl-1,1-dioxo-6-phenyl-thiazinan-2-yl]methyl]phenyl]tetrahydropyran-4-yl]amino]methyl]isoxazol-3-one] |
| 8.24 | C[C@H]1CC[C@H](c2ccccc2)S(=O)(=O)N1Cc1cc(F)c(C2(NCc3cc[nH]n3)COC2)cc1F [Example 84, 3-[2,5-difluoro-4-[[(3S,6R)-3-methyl-1,1-dioxo-6-phenyl-thiazinan-2-yl]methyl]phenyl]-N-(1H-pyrazol-3-ylmethyl)oxetan-3-amine] |
| 8.39 | C[C@H]1CC[C@H](c2ccccc2)S(=O)(=O)N1Cc1cc(F)c(C2(NCc3cocn3)COC2)cc1F [Example 85, 3-[2,5-difluoro-4-[[(3S,6R)-3-methyl-1,1-dioxo-6-phenyl-thiazinan-2-yl]methyl]phenyl]-N-(oxazol-4-ylmethyl)oxetan-3-amine] |
| 8.09 | C[C@H]1CC[C@H](c2ccccc2)S(=O)(=O)N1Cc1cc(F)c(C2(NCc3ncco3)COC2)cc1F [Example 88, 3-[2,5-difluoro-4-[[(3S,6R)-3-methyl-1,1-dioxo-6-phenyl-thiazinan-2-yl]methyl]phenyl]-N-(oxazol-2-ylmethyl)oxetan-3-amine] |
| 8.15 | C[C@H]1CC[C@H](c2ccccc2)S(=O)(=O)N1Cc1cc(F)c(C2(NCc3cnccn3)COC2)cc1F [Example 89, 3-[2,5-difluoro-4-[[(3S,6R)-3-methyl-1,1-dioxo-6-phenyl-thiazinan-2-yl]methyl]phenyl]-N-(pyrazin-2-ylmethyl)oxetan-3-amine] |
| 7.86 | CNc1nnc(C2(c3cc(F)c(CN4[C@@H](C)CC[C@H](c5ccccc5)S4(=O)=O)cc3F)CCOCC2)o1 [Example 90, 5-[4-[2,5-difluoro-4-[[(3S,6R)-3-methyl-1,1-dioxo-6-phenyl-thiazinan-2-yl]methyl]phenyl]tetrahydropyran-4-yl]-N-methyl-1,3,4-oxadiazol-2-amine] |
| 7.63 | C[C@H]1CC[C@H](c2ccccc2)S(=O)(=O)N1Cc1cc(F)c(C2(NCc3nnc[nH]3)CCOCC2)cc1F [Example 92, 4-[2,5-difluoro-4-[[(3S,6R)-3-methyl-1,1-dioxo-6-phenyl-thiazinan-2-yl]methyl]phenyl]-N-(4H-1,2,4-triazol-3-ylmethyl)tetrahydropyran-4-amine] |
